What follows are compounds tested against T1, HCMV polymerase (Human cytomegalovirus, UniProt P08546) (assay: HCMV polymerase assay (scintillation proximity assay)). Conditions: percentage of inhibition at 25 μM concentration in CMV polymerase assay.
T1 construct: made in house; host or cells: SF-9 insect cells infected with recombinant baculovirus
T1 sequence (P08546 whole entry): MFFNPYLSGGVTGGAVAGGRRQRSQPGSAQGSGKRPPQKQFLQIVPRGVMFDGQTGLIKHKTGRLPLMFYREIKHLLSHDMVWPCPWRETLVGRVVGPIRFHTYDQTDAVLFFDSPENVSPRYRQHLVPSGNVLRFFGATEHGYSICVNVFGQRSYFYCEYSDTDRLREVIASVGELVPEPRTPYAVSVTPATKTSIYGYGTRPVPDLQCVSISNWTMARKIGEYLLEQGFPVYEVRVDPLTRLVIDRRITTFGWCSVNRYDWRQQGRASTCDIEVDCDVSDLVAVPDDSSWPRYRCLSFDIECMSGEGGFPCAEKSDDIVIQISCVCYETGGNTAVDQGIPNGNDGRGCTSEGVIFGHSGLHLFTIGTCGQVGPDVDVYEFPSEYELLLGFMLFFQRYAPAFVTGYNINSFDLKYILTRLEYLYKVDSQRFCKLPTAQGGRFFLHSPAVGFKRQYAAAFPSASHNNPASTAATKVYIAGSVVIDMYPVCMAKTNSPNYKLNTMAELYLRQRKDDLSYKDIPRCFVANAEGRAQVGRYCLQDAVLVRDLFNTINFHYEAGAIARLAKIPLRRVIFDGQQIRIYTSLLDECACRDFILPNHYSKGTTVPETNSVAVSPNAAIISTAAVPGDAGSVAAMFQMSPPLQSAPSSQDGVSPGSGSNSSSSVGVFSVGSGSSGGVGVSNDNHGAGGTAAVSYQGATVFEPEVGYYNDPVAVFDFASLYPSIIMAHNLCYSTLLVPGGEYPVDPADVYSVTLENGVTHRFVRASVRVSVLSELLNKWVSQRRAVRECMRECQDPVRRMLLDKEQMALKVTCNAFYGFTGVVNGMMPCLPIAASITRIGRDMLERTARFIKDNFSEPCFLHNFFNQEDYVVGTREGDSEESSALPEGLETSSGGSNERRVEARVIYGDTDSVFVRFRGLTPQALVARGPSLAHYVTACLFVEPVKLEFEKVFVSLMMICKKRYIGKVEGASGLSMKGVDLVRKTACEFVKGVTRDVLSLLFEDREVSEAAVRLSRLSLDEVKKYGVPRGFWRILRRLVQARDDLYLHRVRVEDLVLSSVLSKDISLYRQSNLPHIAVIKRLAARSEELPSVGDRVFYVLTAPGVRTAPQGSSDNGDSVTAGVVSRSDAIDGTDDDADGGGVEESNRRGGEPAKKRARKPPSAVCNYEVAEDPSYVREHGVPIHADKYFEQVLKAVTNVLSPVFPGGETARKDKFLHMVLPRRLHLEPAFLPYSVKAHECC
Type: biochemical
Outline: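 Values are percent inhibition at 25 μM, measured by scintillation proximity after capture of biotinylated poly(dA)-oligo(dT) (6 nM) extended with 90 nM 3H-dTTP. Recombinant SF-9-derived enzyme reacted 30 min at 25 or 37 °C in HEPES pH 7.5/KCl/MgCl2/BSA buffer, ±2 mM CHAPS, before EDTA termination.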
Work on `CCCCCCCC/C=C/CCCCCCCC(=O)Nc1nnc(NCc2ccc(OC)c(OC)c2)s1` [compound 100, (E)-N-{5-[(3,4-dimethoxybenzyl)amino]-1,3,4-thiadiazol-2-yl}-9-octadecenamide] yielded an inhibition at 25 µM of 65.1%. In the case of `O=C(Nc1nnc(NCc2cccc3ccccc23)s1)c1c(Cl)cccc1Cl` [compound 101, 2,6-dichloro-N-{5-[(1-naphthylmethyl)amino]-1,3,4-thiadiazol-2-yl}benzamide], the inhibition at 25 µM is reported as 65%. With `N#Cc1ccc(C(=O)Nc2nnc(NCCc3cccs3)s2)cc1` [compound 102, 4-cyano-N-(5-{[2-(2-thienyl)ethyl]amino}-1,3,4-thiadiazol-2-yl)benzamide] the inhibition at 25 µM was 64.9%. In the case of `N#Cc1ccc(C(=O)Nc2nnc(NC3CCCCCC3)s2)cc1` [compound 103, 4-cyano-N-[5-(cycloheptylamino)-1,3,4-thiadiazol-2-yl]benzamide], the inhibition at 25 µM is reported as 64.9%. `O=C(Nc1nnc(NC2CCCCCC2)s1)c1ccc([N+](=O)[O-])o1` [compound 104, N-[5-(cycloheptylamino)-1,3,4-thiadiazol-2-yl]-5-nitro-2-furamide] gave an inhibition at 25 µM of 64.7%. For `CCCCCCCC/C=C/CCCCCCCC(=O)Nc1nnc(NCCc2ccccc2)s1` [compound 105, (E)-N-[5-(phenethylamino)-1,3,4-thiadiazol-2-yl]-9-octadecenamide], the inhibition at 25 µM was 64.6%. For `CCCCCCCCCCCNc1nnc(NC(=O)CCCCCl)s1` [compound 106, 5-chloro-N-[5-(undecylamino)-1,3,4-thiadiazol-2-yl]pentanamide], the inhibition at 25 µM was 64.2%. `CCCCCCCC/C=C/CCCCCCCC(=O)Nc1nnc(NC2CCCc3ccccc32)s1` (stereo not drawn) [compound 107, (E)-N-[5-(1,2,3,4-tetrahydro-1-naphthalenylamino)-1,3,4-thiadiazol-2-yl]-9-octadecenamide] showed an inhibition at 25 µM of 63.8%. With `CCCCCCCC/C=C/CCCCCCCC(=O)Nc1nnc(NCCCCc2ccccc2)s1` [compound 108, (E)-N-{5-[(4-phenylbutyl)amino]-1,3,4-thiadiazol-2-yl}-9-octadecenamide] the inhibition at 25 µM was 63.5%. In the case of `CC(C)c1cc(C(C)C)c(C(=O)Nc2nnc(NCCC3CCCN3C)s2)c(C(C)C)c1` (stereo not drawn) [compound 109, 2,4,6-triisopropyl-N-(5-{[2-(1-methyl-2-pyrrolidinyl)ethyl]amino]-1,3,4-thiadiazol-2-yl)benzamide], the inhibition at 25 µM is reported as 63.4%. For `O=C(/C=C/c1ccccc1Cl)Nc1nnc(NC2CCN(Cc3ccccc3)CC2)s1` [compound 110, (E)-N-{5-[(1-benzyl-4-piperidinyl)amino]-1,3,4-thiadiazol-2-yl}-3-(2-chlorophenyl)-2-propenamide], the inhibition at 25 µM was 62.9%. `O=C(Nc1nnc(NCC(c2ccccc2)c2ccccc2)s1)c1ccc(S(=O)(=O)F)cc1` [compound 111, 4-[({5-[(2,2-diphenylethyl)amino]-1,3,4-thiadiazol-2-yl}amino)carbonyl]benzenesulfonyl fluoride] was tested, and the “% Inhib” value was 62.6%. In the case of `O=C(Nc1nnc(NCCCNC2CCCCC2)s1)c1ccc(C(F)(F)F)cc1` [compound 112, N-(5-{[3-(cyclohexylamino)propyl]amino}-1,3,4-thiadiazol-2-yl)-4-(trifluoromethyl)benzamide], the inhibition at 25 µM is reported as 62.5%. `CCCCCCCC/C=C/CCCCCCCC(=O)Nc1nnc(NCC2CC2)s1` [compound 113, (E)-N-{5-[(cyclopropylmethyl)amino]-1,3,4-thiadiazol-2-yl}-9-octadecenamide] showed an inhibition at 25 µM of 62.2%. For `O=C(/C=C/c1ccccc1)Nc1nnc(NCCSc2ccccc2)s1` [compound 114, (E)-3-phenyl-N-(5-{[2-(phenylsulfanyl)ethyl]amino}-1,3,4-thiadiazol-2-yl)-2-propenamide], the inhibition at 25 µM was 62.1%. Compound `O=C(Nc1nnc(NC2CCc3ccccc32)s1)c1c(Cl)cccc1Cl` (stereo not drawn) [compound 115, 2,6-dichloro-N-[5-(2,3-dihydro-1H-inden-1-ylamino)-1,3,4-thiadiazol-2-yl]benzamide] has an inhibition at 25 µM of 62%. For `CCCCC(CC)CNc1nnc(NC(=O)c2ccc3c(c2)C(=O)OC3=O)s1` (stereo not drawn) [compound 116, N-{5-[(2-ethylhexyl)amino]-1,3,4-thiadiazol-2-yl}-1,3-dioxo-1,3-dihydro-2-benzofuran-5-carboxamide], the inhibition at 25 µM was 61.9%. For `O=C(/C=C/c1ccccc1Cl)Nc1nnc(NCc2ccc3c(c2)OCO3)s1` [compound 117, (E)-N-{5-[(1,3-benzodioxol-5-ylmethyl)amino]-1,3,4-thiadiazol-2-yl}-3-(2-chlorophenyl)-2-propenamide], the inhibition at 25 µM was 61.5%. `O=C(Nc1nnc(NCc2cccs2)s1)c1c(Cl)cccc1Cl` [compound 118, 2,6-dichloro-N-{5-[(2-thienylmetyl)amino]-1,3,4-thiadiazol-2-yl}benzamide] gave an inhibition at 25 µM of 61.2%. In the case of `CCCCCCCC/C=C/CCCCCCCC(=O)Nc1nnc(NCc2cccc3ccccc23)s1` [compound 119, (E)-N-{5-[(1-naphthylmethyl)amino]-1,3,4-thiadiazol-2-yl}-9-octadecenamide], the inhibition at 25 µM is reported as 60.6%. Compound `CC(C)(C)OC(=O)CCNc1nnc(NC(=O)/C=C/c2ccccc2)s1` [compound 120, tert-butyl 3-[(5-{[(E)-3-phenyl-2-propenoyl]amino}-1,3,4-thiadiazol-2-yl)amino]propanoate] has an inhibition at 25 µM of 60%. Work on `CCCCCCCCCCCNc1nnc(NC(=O)c2ccc(F)cc2F)s1` [compound 121, 2,4-difluoro-N-[5-(undecylamino)-1,3,4-thiadiazol-2-yl]benzamide] yielded an inhibition at 25 µM of 60%. `CCOc1ccc2ccccc2c1C(=O)Nc1nnc(NCc2ccc(OC)c(OC)c2)s1` [compound 122, N-{5-[(3,4-dimethoxybenzyl)amino]-1,3,4-thiadiazol-2-yl}-2-ethoxy-1-naphthamide] gave an inhibition at 25 µM of 59.5%. With `CCCCCCCC/C=C/CCCCCCCC(=O)Nc1nnc(NCCNC(C)=O)s1` [compound 123, (E)-N-(5-{[2-(acetylamino)ethyl]amino}-1,3,4-thiadiazol-2-yl)-9-octadecenamide] the inhibition at 25 µM was 59.2%. In the case of `O=C(/C=C/c1ccccc1)Nc1nnc(NCCCNC2CCCCC2)s1` [compound 124, (E)-N-(5-{[3-(cyclohexylamino)propyl]amino}-1,3,4-thiadiazol-2-yl)-3-phenyl-2-propenamide], the inhibition at 25 µM is reported as 59.2%. With `NS(=O)(=O)c1ccc(CCNc2nnc(NC(=O)/C=C/c3ccccc3Cl)s2)cc1` [compound 125, (E)-N-(5-{[4-(aminosulfonyl)phenethyl]amino}-1,3,4-thiadizol-2-yl)-3-(2-chlorophenyl)-2-propenamide] the inhibition at 25 µM was 58.9%. Compound `O=C(Nc1nnc(NCCCNC2CCCCC2)s1)c1ccc([N+](=O)[O-])o1` [compound 126, N-(5-{[3-(cyclohexylamino)propyl]amino}-1,3,4-thiadiazol-2-yl)-5-nitro-2-furamide] has an inhibition at 25 µM of 58.9%. `N#Cc1ccc(C(=O)Nc2nnc(NCCCNC3CCCCC3)s2)cc1` [compound 127] gave an inhibition at 25 µM of 58.5%. `CC(C)c1cc(C(C)C)c(C(=O)Nc2nnc(NCCc3ccc(S(N)(=O)=O)cc3)s2)c(C(C)C)c1` [compound 128, N-(5-{[4-(aminosulfonyl)phenethyl]amino}1,3,4-thiadiazol-2-yl)-2,4,6-triisopropylbenzamide] was tested, and the inhibition at 25 µM was 58.3%. In the case of `CCCCCCCC/C=C/CCCCCCCC(=O)Nc1nnc(NCCSCC)s1` [compound 129, (E)-N-(5-{[2-(ethylsulfanyl)ethyl]amino}1,3,4-thiadiazol-2-yl)-9-octadecenamide], the inhibition at 25 µM is reported as 58.3%.
